According to article PMC12250965, “Design and Synthesis of Sulfonium and Selenonium Derivatives Bearing 3′,5′-O-Benzylidene Acetal Side Chain Structure as Potent α-Glucosidase Inhibitors” (Molecules, 2025):

Columns and labels:
rat intestinal maltase = experiment: In vitro α-glucosidase inhibition assay, rat intestinal maltase; type: biochemical; details: rat small intestinal brush border membrane vesicles; maltose substrate; mean ± SD (n = 3); read-out: IC50 against maltase
Procedure: (§1) The testing method previously described was modified and used. Thus, rat small intestinal brush border membrane vesicles were first prepared, and its suspension in 0.1 M maleate buffer (pH = 6.0) was used as small intestinal α-glucosidases of maltase and sucrase. A test compound was dissolved in dimethylsulfoxide (DMSO), and the resulting solution was diluted with 0.1 M maleate buffer to prepare the test compound solution (concentration of DMSO: 10%). The substrate solution in maleate buffer ([…], 50 μL), a test compound solution (25 μL), and the enzyme solution (25 μL) were mixed and incubated at 37 °C for 30 min. After incubation, the solution was immediately heated by boiling water for 2 min to stop the reaction, and the solution was mixed with water (150 μL). Glucose concentration was determined by the glucose-oxidase method. […] The IC50 value was determined graphically by a plot of percent inhibition versus log of the test compound.

rat intestinal sucrase = molecular target: T1, rat intestinal sucrase (Rattus norvegicus, UniProt P23739); experiment: In vitro α-glucosidase inhibition assay, rat intestinal sucrase; type: biochemical; details: rat small intestinal brush border membrane vesicles; sucrose substrate; mean ± SD (n = 3); read-out: IC50 against sucrase
T1 construct: rat small intestinal brush border membrane vesicles were first prepared; from tissue; host or cells: rat small intestine, brush border membrane vesicles
T1 sequence (P23739 whole entry): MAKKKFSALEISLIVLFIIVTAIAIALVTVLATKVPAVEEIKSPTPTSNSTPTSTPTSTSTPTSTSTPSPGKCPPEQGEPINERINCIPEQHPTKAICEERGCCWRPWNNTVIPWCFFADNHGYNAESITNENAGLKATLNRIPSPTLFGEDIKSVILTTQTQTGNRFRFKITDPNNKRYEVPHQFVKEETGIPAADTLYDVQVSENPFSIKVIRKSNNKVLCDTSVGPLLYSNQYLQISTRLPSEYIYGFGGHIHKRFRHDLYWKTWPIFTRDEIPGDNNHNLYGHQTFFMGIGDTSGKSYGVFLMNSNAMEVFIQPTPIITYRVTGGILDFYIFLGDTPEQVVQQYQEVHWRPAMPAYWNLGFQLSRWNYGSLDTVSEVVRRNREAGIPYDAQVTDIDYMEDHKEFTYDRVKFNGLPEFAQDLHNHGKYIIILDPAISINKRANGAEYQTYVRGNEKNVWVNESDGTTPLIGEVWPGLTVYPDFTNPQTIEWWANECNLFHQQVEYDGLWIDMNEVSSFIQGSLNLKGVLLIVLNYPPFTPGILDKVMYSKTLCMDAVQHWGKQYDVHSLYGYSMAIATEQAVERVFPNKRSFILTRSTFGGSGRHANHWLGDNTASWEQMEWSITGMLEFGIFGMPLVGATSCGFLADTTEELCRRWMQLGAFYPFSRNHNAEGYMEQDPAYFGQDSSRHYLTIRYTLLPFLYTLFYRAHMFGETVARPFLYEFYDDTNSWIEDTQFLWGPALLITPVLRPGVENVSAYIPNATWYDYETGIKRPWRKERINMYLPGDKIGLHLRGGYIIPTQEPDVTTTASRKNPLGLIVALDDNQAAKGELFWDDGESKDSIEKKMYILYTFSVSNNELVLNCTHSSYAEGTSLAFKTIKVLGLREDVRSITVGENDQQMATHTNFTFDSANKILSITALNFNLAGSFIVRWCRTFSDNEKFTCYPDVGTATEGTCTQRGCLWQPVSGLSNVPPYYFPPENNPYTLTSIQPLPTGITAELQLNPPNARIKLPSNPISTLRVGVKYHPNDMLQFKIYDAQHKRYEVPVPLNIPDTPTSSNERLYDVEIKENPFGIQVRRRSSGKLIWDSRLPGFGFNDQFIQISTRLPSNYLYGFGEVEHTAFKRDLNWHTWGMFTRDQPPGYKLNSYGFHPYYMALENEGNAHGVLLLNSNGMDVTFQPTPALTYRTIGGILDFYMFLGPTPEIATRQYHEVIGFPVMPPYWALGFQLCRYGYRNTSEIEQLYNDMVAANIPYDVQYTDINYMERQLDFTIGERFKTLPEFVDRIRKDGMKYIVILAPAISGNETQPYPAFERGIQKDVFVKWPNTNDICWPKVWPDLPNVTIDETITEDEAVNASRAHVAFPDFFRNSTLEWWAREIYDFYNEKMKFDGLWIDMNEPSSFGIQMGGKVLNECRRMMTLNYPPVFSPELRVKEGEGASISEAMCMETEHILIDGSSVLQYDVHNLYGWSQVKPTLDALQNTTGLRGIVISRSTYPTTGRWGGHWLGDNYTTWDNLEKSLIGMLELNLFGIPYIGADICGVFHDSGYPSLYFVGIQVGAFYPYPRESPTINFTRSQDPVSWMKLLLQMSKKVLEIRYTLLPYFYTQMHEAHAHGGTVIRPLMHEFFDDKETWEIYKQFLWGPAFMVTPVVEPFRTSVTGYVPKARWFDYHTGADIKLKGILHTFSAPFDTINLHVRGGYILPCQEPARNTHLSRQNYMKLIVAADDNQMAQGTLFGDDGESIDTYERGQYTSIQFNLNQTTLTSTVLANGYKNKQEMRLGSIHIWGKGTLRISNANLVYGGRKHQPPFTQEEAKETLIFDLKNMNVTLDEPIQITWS
Procedure: as §1

OCC1C(O)C(O)C[S+]1CC(O)C1OC(c2cccc(Cl)c2Cl)OCC1O [19a, 1,4-Dideoxy-1,4-[(R)-(5-deoxy-1,3-O-(2,3-dichlorobenzylidene)-D-arabinitol-5-yl)episulfoniumylidene]-D-arabinitol chloride]
IC50 (rat intestinal maltase): 500 ± 80 nM | IC50 (rat intestinal sucrase): 1600 ± 430 nM

OCC1C(O)C(O)C[S+]1CC(O)C1OC(c2ccc(Cl)cc2Cl)OCC1O [19b, 1,4-Dideoxy-1,4-[(R)-(5-deoxy-1,3-O-(2,4-dichlorobenzylidene)-D-arabinitol-5-yl)episulfoniumylidene]-D-arabinitol chloride]
IC50 (rat intestinal maltase): 2000 ± 80 nM | IC50 (rat intestinal sucrase): 1200 ± 230 nM

OCC1C(O)C(O)C[S+]1CC(O)C1OC(c2cc(Cl)ccc2Cl)OCC1O [19c, 1,4-Dideoxy-1,4-[(R)-(5-deoxy-1,3-O-(2,5-dichlorobenzylidene)-D-arabinitol-5-yl)episulfoniumylidene]-D-arabinitol chloride]
IC50 (rat intestinal maltase): 550 ± 50 nM | IC50 (rat intestinal sucrase): 800 ± 120 nM

OCC1C(O)C(O)C[S+]1CC(O)C1OC(c2cccc(F)c2Cl)OCC1O [19d, 1,4-Dideoxy-1,4-[(R)-(5-deoxy-1,3-O-(2-chloro-3-fluorobenzylidene)-D-arabinitol-5-yl)episulfoniumylidene]-D-arabinitol chloride]
IC50 (rat intestinal maltase): 1000 ± 50 nM | IC50 (rat intestinal sucrase): 700 ± 130 nM

OCC1C(O)C(O)C[S+]1CC(O)C1OC(c2cc(F)ccc2Cl)OCC1O [19e, 1,4-Dideoxy-1,4-[(R)-(5-deoxy-1,3-O-(2-chloro-5-fluorobenzylidene)-D-arabinitol-5-yl)episulfoniumylidene]-D-arabinitol chloride]
IC50 (rat intestinal sucrase): 6600 ± 450 nM

OCC1C(O)C(O)C[S+]1CC(O)C1OC(c2ccc(Cl)c(Cl)c2)OCC1O [19f, 1,4-Dideoxy-1,4-[(R)-(5-deoxy-1,3-O-(3,4-dichlorobenzylidene)-D-arabinitol-5-yl)episulfoniumylidene]-D-arabinitol chloride]
IC50 (rat intestinal maltase): 5000 ± 390 nM | IC50 (rat intestinal sucrase): 4600 ± 90 nM

OCC1C(O)C(O)C[S+]1CC(O)C1OC(c2cc(Cl)cc(Cl)c2)OCC1O [19g, 1,4-Dideoxy-1,4-[(R)-(5-deoxy-1,3-O-(3,5-dichlorobenzylidene)-D-arabinitol-5-yl)episulfoniumylidene]-D-arabinitol chloride]
IC50 (rat intestinal maltase): 4900 ± 250 nM | IC50 (rat intestinal sucrase): 5500 ± 620 nM

OCC1C(O)C(O)C[S+]1CC(O)C1OC(c2cc(F)cc(Cl)c2)OCC1O [19h, 1,4-Dideoxy-1,4-[(R)-(5-deoxy-1,3-O-(3-chloro-5-fluorobenzylidene)-D-arabinitol5-yl)episulfoniumylidene]-D-arabinitol chloride]
IC50 (rat intestinal maltase): 850 ± 280 nM | IC50 (rat intestinal sucrase): 1400 ± 330 nM

OCC1C(O)C(O)C[S+]1CC(O)C1OC(c2cc(C(F)(F)F)cc(C(F)(F)F)c2)OCC1O [19i, 1,4-Dideoxy-1,4-[(R)-(5-deoxy-1,3-O-(3,5-bis(trifluoromethyl)benzylidene)-D-arabinitol-5-yl)episulfoniumylidene]-D-arabinitol chloride]
IC50 (rat intestinal maltase): 8900 ± 530 nM | IC50 (rat intestinal sucrase): 10000 ± 1800 nM

O=[N+]([O-])c1ccc(F)cc1C1OCC(O)C(C(O)C[S+]2CC(O)C(O)C2CO)O1 [19j, 1,4-Dideoxy-1,4-[(R)-(5-deoxy-1,3-O-(5-fluoro-2-nitrobenzylidene)-D-arabinitol-5-yl)episulfoniumylidene]-D-arabinitol chloride]
IC50 (rat intestinal maltase): 750 ± 80 nM | IC50 (rat intestinal sucrase): 1500 ± 210 nM

OCC1C(O)C(O)C[S+]1CC(O)C1OC(c2ccccc2Br)OCC1O [19k, 1,4-Dideoxy-1,4-[(R)-(5-deoxy-1,3-O-(o-bromobenzylidene)-D-arabinitol-5-yl)episulfoniumylidene]-D-arabinitol chloride]
IC50 (rat intestinal maltase): 1900 ± 80 nM | IC50 (rat intestinal sucrase): 1100 ± 20 nM

OCC1C(O)C(O)C[S+]1CC(O)C1OC(c2cccc(Br)c2)OCC1O [19l, 1,4-Dideoxy-1,4-[(R)-(5-deoxy-1,3-O-(m-bromobenzylidene)-D-arabinitol-5-yl)episulfoniumylidene]-D-arabinitol chloride]
IC50 (rat intestinal maltase): 9700 ± 740 nM | IC50 (rat intestinal sucrase): 7900 ± 1600 nM
